Assay results published in patent US20260226086A1, “COMPOUNDS AND COMPOSITIONS AS STAT3 DEGRADERS AND USES THEREOF” (REGENTS OF THE UNIVERSITY OF MICHIGAN, priority 2023, published 2026).
Read-outs that look alike come from different tables or passages of the source.

Experiments:
Type in all cases: cell-based
[1] = tested on: SUP-M2 cells; test: CellTiter-Glo 2.0 cell viability assay, SUP-M2; details: SUP-M2, 96 h, 4 days
Method in brief: (§1)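 IC50 derived by four-parameter nonlinear regression on triplicate luminescence data (CellTiter-Glo 2.0), normalised to untreated controls. Cells plated at 1000/well received serial compound dilutions for 4 days at 37 °C with 5% CO2.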

[2] = tested on: SU-DHL-1 cells; test: CellTiter-Glo 2.0 cell viability assay, SU-DHL-1; details: Homo sapiens, 96 h, 4 days
Method in brief: as §1

[3] = target: T1, STAT3 (Homo sapiens, UniProt P40763); test: HiBiT assay, STAT3 degradation in STAT3-HiBiT KI HeLa cells; details: for DC50: read-out: STAT3 Degradation (HeLa 24 h HiBit) DC50
T1 construct: This cell line is a clone created by using CRISPR-Cas9 to fuse HiBiT to the 3′ end of STAT3 in HeLa cells; host or cells: STAT3-HiBiT KI HeLa cell line (CRISPR-Cas9 knock-in clone)
Method in brief: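 Luminescence of endogenous HiBiT-tagged STAT3 (C-terminal knock-in, HeLa) was measured with lytic Nano-Glo detection after 24 h exposure to serially diluted compounds at 37 °C. Cells plated at 20000/well; untreated cells served as control, and triplicate means were fit by four-parameter regression to give IC50.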

T1 sequence (P40763 whole entry): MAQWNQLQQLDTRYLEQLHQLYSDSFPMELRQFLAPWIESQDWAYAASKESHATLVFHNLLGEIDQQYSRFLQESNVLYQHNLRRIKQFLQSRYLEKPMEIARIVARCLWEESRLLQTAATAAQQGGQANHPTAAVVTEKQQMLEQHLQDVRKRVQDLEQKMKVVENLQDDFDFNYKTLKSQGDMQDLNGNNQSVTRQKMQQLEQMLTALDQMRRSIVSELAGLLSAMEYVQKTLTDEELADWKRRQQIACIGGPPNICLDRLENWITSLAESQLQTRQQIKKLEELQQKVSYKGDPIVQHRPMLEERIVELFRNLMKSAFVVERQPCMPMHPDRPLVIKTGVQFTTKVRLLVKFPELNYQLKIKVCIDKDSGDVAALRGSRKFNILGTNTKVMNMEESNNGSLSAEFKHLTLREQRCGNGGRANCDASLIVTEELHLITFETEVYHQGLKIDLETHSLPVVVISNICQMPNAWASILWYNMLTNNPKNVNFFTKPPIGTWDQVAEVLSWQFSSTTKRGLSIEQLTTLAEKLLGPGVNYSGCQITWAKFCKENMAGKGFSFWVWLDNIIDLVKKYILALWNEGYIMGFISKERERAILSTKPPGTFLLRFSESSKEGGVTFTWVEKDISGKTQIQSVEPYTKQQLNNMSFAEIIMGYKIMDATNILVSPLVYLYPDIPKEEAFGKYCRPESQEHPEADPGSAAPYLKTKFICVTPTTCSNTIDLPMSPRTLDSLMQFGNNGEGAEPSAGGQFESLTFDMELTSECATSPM

Row | Compound | IC50 [1] [nM] | IC50 [2] [nM] | DC50 ([3]; 24 h) [nM] | Dmax at 1 µM ([3]; 24 h) [%] | DC50 [3] [nM]
1 | Cc1ncsc1-c1ccc([C@H](C)NC(=O)[C@@H]2C[C@@H](O)CN2C(=O)[C@@H](n2cc(CCCCCC(=O)N3CC[C@H]4CC[C@@H](C(=O)N[C@@H](CCC(N)=O)C(=O)NC(c5ccccc5)c5ccccc5)N4C(=O)[C@@H](NC(=O)c4cc5cc(C(=O)P(=O)(O)O)ccc5[nH]4)C3)nn2)C(C)(C)C)cc1 [Compound 58, (2-(((5S,8S,10aR)-8-(((S)-5-amino-1-(benzhydrylamino)-1,5-dioxopentan-2-yl)carbamoyl)-3-(6-(1-((S)-1-((2S,4R)-4-hydroxy-2-(((S)-1-(4-(4-methylthiazol-5-yl)phenyl)ethyl)carbamoyl)pyrrolidin-1-yl)-3,3-dimethyl-1-oxobutan-2-yl)-1H-1,2,3-triazol-4-yl)hexanoyl)-6-oxodecahydropyrrolo[1,2-a][1,5]diazocin-5-yl)carbamoyl)-1H-indole-5-carbonyl)phosphonic acid] | 100 to 1000 | > 1000 | > 1000 |  | 
2 | CC(=O)N1CC[C@H]2CC[C@@H](C(=O)N[C@@H](CCC(N)=O)COc3cccc(CCCCNC(=O)C[C@H](NC(=O)[C@@H]4C[C@@H](O)CN4C(=O)[C@@H](n4cc(C5CC5)nn4)C(C)(C)C)c4ccc(-c5scnc5C)cc4)c3Cl)N2C(=O)[C@@H](NC(=O)c2cc3cc(C(=O)P(=O)(O)O)ccc3[nH]2)C1 [Compound 7, (2-(((5S,8S,10aR)-3-acetyl-8-(((S)-5-amino-1-(2-chloro-3-(4-((S)-3-((2S,4R)-1-((S)-2-(4-cyclopropyl-1H-1,2,3-triazol-1-yl)-3,3-dimethylbutanoyl)-4-hydroxypyrrolidine-2-carboxamido)-3-(4-(4-methylthiazol-5-yl)phenyl)propanamido)butyl)phenoxy)-5-oxopentan-2-yl)carbamoyl)-6-oxodecahydropyrrolo[1,2-a][1,5]diazocin-5-yl)carbamoyl)-1H-indole-5-carbonyl)phosphonic acid] | < 10 | 10 to 100 | < 10 | > 80 | 
3 | Cc1ncsc1-c1ccc([C@H](C)NC(=O)[C@@H]2C[C@@H](O)CN2C(=O)[C@@H](n2cc(CCCCC(=O)N3CC[C@H]4CC[C@@H](C(=O)N[C@@H](CCC(N)=O)C(=O)NCc5cccc(Cl)c5)N4C(=O)[C@@H](NC(=O)c4cc5cc(C(=O)P(=O)(O)O)ccc5[nH]4)C3)nn2)C(C)(C)C)cc1 [Compound 10, (2-(((5S,8S,10aR)-8-(((S)-5-amino-1-((3-chlorobenzyl)amino)-1,5-dioxopentan-2-yl)carbamoyl)-3-(5-(1-((S)-1-((2S,4R)-4-hydroxy-2-(((S)-1-(4-(4-methylthiazol-5-yl)phenyl)ethyl)carbamoyl)pyrrolidin-1-yl)-3,3-dimethyl-1-oxobutan-2-yl)-1H-1,2,3-triazol-4-yl)pentanoyl)-6-oxodecahydropyrrolo[1,2-a][1,5]diazocin-5-yl)carbamoyl)-1H-indole-5-carbonyl)phosphonic acid] | 10 to 100 | 10 to 100 | 10 to 100 | > 80 | 
4 | CCS(=O)(=O)c1ccc(CNC(=O)[C@H](CCC(N)=O)NC(=O)[C@@H]2CC[C@@H]3CCN(C(=O)CCCCCCc4cn([C@H](C(=O)N5C[C@H](O)C[C@H]5C(=O)N[C@@H](C)c5ccc(-c6scnc6C)cc5)C(C)(C)C)nn4)C[C@H](NC(=O)c4cc5cc(C(=O)P(=O)(O)O)ccc5[nH]4)C(=O)N32)cc1 [Compound 15, (2-(((5S,8S,10aR)-8-(((S)-5-amino-1-((4-(ethylsulfonyl)benzyl)amino)-1,5-dioxopentan-2-yl)carbamoyl)-3-(7-(1-((S)-1-((2S,4R)-4-hydroxy-2-(((S)-1-(4-(4-methylthiazol-5-yl)phenyl)ethyl)carbamoyl)pyrrolidin-1-yl)-3,3-dimethyl-1-oxobutan-2-yl)-1H-1,2,3-triazol-4-yl)heptanoyl)-6-oxodecahydropyrrolo[1,2-a][1,5]diazocin-5-yl)carbamoyl)-1H-indole-5-carbonyl)phosphonic acid] | 10 to 100 | 10 to 100 | < 10 | > 80 | 
5 | Cc1ncsc1-c1ccc([C@H](C)NC(=O)[C@@H]2C[C@@H](O)CN2C(=O)[C@@H](NC(=O)CCCCCCCC(=O)N2CC[C@H]3CC[C@@H](C(=O)N[C@@H](CCC(N)=O)C(=O)NC(c4ccccc4)c4ccccc4)N3C(=O)[C@@H](NC(=O)c3cc4cc(C(=O)P(=O)(O)O)ccc4[nH]3)C2)C(C)(C)C)cc1 [Compound 52, (2-(((5S,8S,10aR)-8-(((S)-5-amino-1-(benzhydrylamino)-1,5-dioxopentan-2-yl)carbamoyl)-3-(9-(((S)-1-((2S,4R)-4-hydroxy-2-(((S)-1-(4-(4-methylthiazol-5-yl)phenyl)ethyl)carbamoyl)pyrrolidin-1-yl)-3,3-dimethyl-1-oxobutan-2-yl)amino)-9-oxononanoyl)-6-oxodecahydropyrrolo[1,2-a][1,5]diazocin-5-yl)carbamoyl)-1H-indole-5-carbonyl)phosphonic acid] | 100 to 1000 | 100 to 1000 | 100 to 1000 |  | 
6 | Cc1ncsc1-c1ccc([C@H](C)NC(=O)[C@@H]2C[C@@H](O)CN2C(=O)[C@@H](NC(=O)CCC(=O)N2CC[C@H]3CC[C@@H](C(=O)N[C@@H](CCC(N)=O)C(=O)NC(c4ccccc4)c4ccccc4)N3C(=O)[C@@H](NC(=O)c3cc4cc(C(=O)P(=O)(O)O)ccc4[nH]3)C2)C(C)(C)C)cc1 [Compound 47, (2-(((5S,8S,10aR)-8-(((S)-5-amino-1-(benzhydrylamino)-1,5-dioxopentan-2-yl)carbamoyl)-3-(4-(((S)-1-((2S,4R)-4-hydroxy-2-(((S)-1-(4-(4-methylthiazol-5-yl)phenyl)ethyl)carbamoyl)pyrrolidin-1-yl)-3,3-dimethyl-1-oxobutan-2-yl)amino)-4-oxobutanoyl)-6-oxodecahydropyrrolo[1,2-a][1,5]diazocin-5-yl)carbamoyl)-1H-indole-5-carbonyl)phosphonic acid] | 100 to 1000 | 100 to 1000 | 100 to 1000 |  | 
7 | CCS(=O)(=O)c1ccc(CNC(=O)[C@H](CCC(N)=O)NC(=O)[C@@H]2CC[C@@H]3CCN(C(=O)CCCCc4cn([C@@H](C(=O)N5C[C@H](O)C[C@H]5C(=O)N[C@H](C)c5ccc(-c6scnc6C)cc5)C5CCOCC5)nn4)C[C@H](NC(=O)c4cc5cc(C(=O)P(=O)(O)O)ccc5[nH]4)C(=O)N32)cc1 [Compound 24, (2-(((5S,8S,10aR)-8-(((S)-5-amino-1-((4-(ethylsulfonyl)benzyl)amino)-1,5-dioxopentan-2-yl)carbamoyl)-3-(5-(1-((R)-2-((2S,4R)-4-hydroxy-2-(((R)-1-(4-(4-methylthiazol-5-yl)phenyl)ethyl)carbamoyl)pyrrolidin-1-yl)-2-oxo-1-(tetrahydro-2H-pyran-4-yl)ethyl)-1H-1,2,3-triazol-4-yl)pentanoyl)-6-oxodecahydropyrrolo[1,2-a][1,5]diazocin-5-yl)carbamoyl)-1H-indole-5-carbonyl)phosphonic acid] | < 10 | < 10 |  | > 80 | < 10
